What follows are compounds tested on T1, IfCelS12A (assay: hydrolysis kinetics, Lineweaver-Burk plot). Conditions: 50 mM Tris-HCl pH 7.0, 50 °C, 10 min, 0.5 μM enzyme.
T1 construct: tag removal not described
Type: biochemical, Iocasia fonsfrigidae
Excerpt: hydrolysis kinetics, Lineweaver-Burk plot on IfCelS12A
In the case of `OC[C@H]1O[C@@H](O[C@H]2[C@H](O)[C@@H](O)[C@H](O[C@H]3[C@H](O)[C@@H](O)[C@H](O[C@H]4[C@H](O)[C@@H](O)[C@H](O[C@H]5[C@H](O)[C@@H](O)C(O)O[C@@H]5CO)O[C@@H]4CO)O[C@@H]3CO)O[C@@H]2CO)[C@H](O)[C@@H](O)[C@@H]1O` (stereo partly drawn) [G5, Cellopentaose], the Km was 270 µM. In the case of `OC[C@H]1O[C@@H](O[C@H]2[C@H](O)[C@@H](O)[C@H](O[C@H]3[C@H](O)[C@@H](O)[C@H](O[C@H]4[C@H](O)[C@@H](O)C(O)O[C@@H]4CO)O[C@@H]3CO)O[C@@H]2CO)[C@H](O)[C@@H](O)[C@@H]1O` (stereo partly drawn) [G4, Cellotetraose], the Km was 250 µM. `OC[C@H]1O[C@@H](O[C@H]2[C@H](O)[C@@H](O)[C@H](O[C@H]3[C@H](O)[C@@H](O)[C@H](O[C@H]4[C@H](O)[C@@H](O)[C@H](O[C@H]5[C@H](O)[C@@H](O)[C@H](O[C@H]6[C@H](O)[C@@H](O)C(O)O[C@@H]6CO)O[C@@H]5CO)O[C@@H]4CO)O[C@@H]3CO)O[C@@H]2CO)[C@H](O)[C@@H](O)[C@@H]1O` (stereo partly drawn) [G6, Cellohexaose] was tested, and the Km was 390 µM.
